Patent US20040087798A1, “Novel amide compounds” (priority 2000, published 2004)

With `N=C(Nc1cccc(NC(=O)Cc2ccccc2)c1)c1ccccc1` [Example 1, N-[3-(iminobenzylamino)phenyl]phenylacetamide] as the compound, how does the melting point read?
The melting point was 213 to 214 °C.

For `N=C(Nc1cccc(NC(=O)C=Cc2ccccc2)c1)c1ccccc1` [Example 2, N-[3-(iminobenzylamino)phenyl]cinnamamide], which melting point is on record?
The melting point was 115 to 117 °C.

With `Cc1ncccc1Oc1ccc(NC(=O)/C=C/c2ccccc2C(F)(F)F)cn1` [Example 9, (2E)-N-[6-(2-methyl-3-pyridyloxy)pyridin-3-yl]-3-[2-(trifluoromethyl)phenyl]-2-propenamide] as the compound, how does the melting point read?
Its melting point is 214 to 216 °C.

With `COc1ccccc1/C=C/C(=O)Nc1cccc(NC(=N)c2ccccc2)c1` [Example 14, (2E)-N-[3-(iminobenzylamino)phenyl]-3-(2-methoxyphenyl)-2-propenamide] as the compound, how does the melting point read?
Its melting point is 219 to 221 °C.

With `N=C(Nc1ccc(F)c(NC(=O)/C=C/c2ccccc2Cl)c1)c1cccs1` [Example 16, (2E)-N-[2-fluoro-5-[[imino(2-thienyl)methyl]amino]phenyl]-3-(2-chlorophenyl)-2 propenamide] as the compound, how does the melting point read?
The melting point was 215 to 216 °C.

Which melting point does the source give for `N=C(Nc1ccc(F)c(NC(=O)/C=C/c2ccccc2Cl)c1)c1ccccc1` [Example 17, (2E)-N-[2-fluoro-5-(iminobenzylamino)phenyl]-3-(2-chlorophenyl)-2-propenamide] here?
The melting point was 189 to 191 °C.

For `COc1ccc(Cl)cc1C(=N)Nc1ccc(F)c(NC(=O)/C=C/c2ccccc2Cl)c1` [Example 18, (2E)-N-[5-[[(5-chloro-2-methoxyphenyl)(imino)methyl]amino]-2-fluorophenyl]-3-(2-chlorophenyl)-2-propenamide], which melting point is on record?
Its melting point is 229 to 230 °C.

For `COc1ccc(F)cc1C(=N)Nc1cc(Cl)cc(NC(=O)/C=C/c2ccccc2Cl)c1` [Example 23, (2E)-N-[3-chloro-5-[[(5-fluoro-2-methoxyphenyl)(imino)methyl]amino]phenyl]-3-(2-chlorophenyl)-2-propenamide], which melting point is on record?
Its melting point is 238 to 239 °C.

With `COc1ccc(Cl)cc1C(=N)Nc1cc(Cl)cc(NC(=O)/C=C/c2ccccc2Cl)c1` [Example 24, (2E)-N-[3-chloro-5-[[(5-chloro-2-methoxyphenyl)(imino)methyl]amino]phenyl]-3-(2-chlorophenyl)-2-propenamide] as the compound, how does the melting point read?
Its melting point is 226 to 228 °C.

With `CC(C)c1ccc(NC(=N)c2cccc(NC(=O)C=Cc3ccccc3Cl)c2)cc1` [Example 27, N-[3-[imino(4-isopropylanilino)methyl]phenyl}-2-chlorocinnamamide] as the compound, how does the melting point read?
The melting point was 112 to 118 °C.

With `COc1ccc(F)cc1C(=N)Nc1cc(Cl)cc(NC(=O)/C=C/c2ccccc2C(F)(F)F)c1` [Example 30, (2E)-N-[3-chloro-5-[[(5-fluoro-2-methoxyphenyl)(imino)methyl]amino]phenyl]-3-[2-(trifluoromethyl)phenyl]-2-propenamide] as the compound, how does the melting point read?
The melting point was 213 to 214 °C.

For `N=C(Nc1cc(Cl)cc(NC(=O)/C=C/c2ccccc2Cl)c1)c1ccccc1` [Example 31, (2E)-N-[3-chloro-5-(iminobenzylamino)phenyl]-3-(2-chlorophenyl)-2-propenamide], which melting point is on record?
Its melting point is 105 to 115 °C.

With `N=C(Nc1cc(NC(=O)/C=C/c2ccccc2Cl)cc(C(F)(F)F)c1)c1cccs1` [Example 32, (2E)-N-[3-trifluoromethyl-5-[[imino(2-thienyl)methyl]amino]phenyl]-3-(2-chlorophenyl)-2-propenamide] as the compound, how does the melting point read?
Its melting point is 206 to 208 °C.

With `N=C(Nc1cc(Cl)cc(NC(=O)/C=C/c2ccccc2Cl)c1)c1cccs1` [Example 33, (2E)-N-[3-chloro-5-[[imino(2-thienyl)methyl]amino]phenyl]-3-(2-chlorophenyl)-2-propenamide] as the compound, how does the melting point read?
The melting point was 123 to 124 °C.

With `N=C(Nc1cc(Cl)cc(NC(=O)/C=C/c2ccccc2C(F)(F)F)c1)c1cccs1` [Example 34, (2E)-N-[3-chloro-5-[[imino(2-thienyl)methyl]amino]phenyl]-3-[2-(trifluoromethyl)phenyl]-2-propenamide] as the compound, how does the melting point read?
Its melting point is 178 to 179 °C.

Which melting point does the source give for `N=C(Nc1cc(Cl)cc(NC(=O)/C=C/c2ccccc2C(F)(F)F)c1)c1ccccc1` [Example 35, (2E)-N-[3-chloro-5-(iminobenzylamino)phenyl]-3-[2-(trifluoromethyl)phenyl]-2-propenamide] here?
The melting point was 137 to 139 °C.

For `N#Cc1cc(NC(=N)c2ccccc2)cc(NC(=O)/C=C/c2ccccc2C(F)(F)F)c1` [Example 36, (2E)-N-[3-cyano-5-(iminobenzylamino)phenyl]-3-[2-(trifluoromethyl)phenyl]-2-propenamide], which melting point is on record?
Its melting point is 181 to 182 °C.

For `Cc1ccc(/C=C/C(=O)Nc2cccc(NC(=N)c3ccccc3)c2)cc1` [Example 38, (2E)-N-[3 (iminobenzylamino)phenyl]-3-(4-methylphenyl)-2-propenamide], which melting point is on record?
Its melting point is 147 to 149 °C.

With `Cc1cccc(/C=C/C(=O)Nc2cccc(NC(=N)c3ccccc3)c2)c1` [Example 39, (2E)-N-[3-(iminobenzylamino)phenyl]-3-(3-methylphenyl)-2-propenamide] as the compound, how does the melting point read?
The melting point was 179 to 180 °C.

Which melting point does the source give for `Cc1ccccc1/C=C/C(=O)Nc1cccc(NC(=N)c2ccccc2)c1` [Example 40, (2E)-N-[3 (iminobenzylamino)phenyl]-3-(2-methylphenyl)-2-propenamide] here?
Its melting point is 109 to 114 °C.

For `Cn1c(NCc2cccc(NC(=O)C=Cc3ccccc3Cl)c2)nc2ccccc21` [Example 43, N-[3-[[(1-methyl-1H-benzimidazol-2-yl)amino]methyl]phenyl]-3-(2-chlorophenyl)-2-propenamide], which melting point is on record?
The melting point was 188 to 191 °C.

With `O=C(C=Cc1ccccc1Cl)Nc1ccc(NCc2ccccn2)nc1` [Example 44, N-[6-[(2-pyridylmethyl)amino]-3-pyridyl]-3-(2-chlorophenyl)-2-propenamide] as the compound, how does the melting point read?
Its melting point is 164 to 165 °C.

For `Cc1ncccc1Oc1ccc(NC(=O)C=Cc2ccccc2Cl)cn1` [Example 45, N-[6-[(2-methyl-3-pyridyl)oxy]-3-pyridyl]-3-(2-chlorophenyl)-2-propenamide], which melting point is on record?
The melting point was 187 to 189 °C.

Which melting point does the source give for `N=C(Nc1cccc(NC(=O)/C=C/c2ccccc2C(F)(F)F)c1)c1ccccc1` [Example 46, (2E)-N-[3-(iminobenzylamino)phenyl]-3-[2-(trifluoromethyl)phenyl]-2-propenamide] here?
Its melting point is 82 to 84 °C.

With `N=C(Nc1cccc(NC(=O)/C=C/c2ccc(Cl)cc2)c1)c1ccccc1` [Example 47, (2E)-N-[3-(iminobenzylamino)phenyl]-3-(4-chlorophenyl)-2-propenamide] as the compound, how does the melting point read?
The melting point was 109 to 110 °C.

Which melting point does the source give for `COc1cccc(/C=C/C(=O)Nc2cccc(NC(=N)c3ccccc3)c2)c1` [Example 48, (2E)-N-[3(iminobenzylamino)phenyl]-3-(3-methoxyphenyl)-2-propenamide] here?
Its melting point is 148 to 149 °C.

With `O=C(C=Cc1ccccc1Cl)Nc1cccc(CNc2ccc3ccccc3n2)c1` [Example 50, N-[3-[(2-quinolylamino)methyl]phenyl]-3-(2-chlorophenyl)-2-propenamide] as the compound, how does the melting point read?
Its melting point is 170 to 171 °C.

With `CN(C)c1ccc(C(=N)Nc2cccc(NC(=O)C=Cc3ccccc3)c2)cc1` [Example 51, N-[3-[[[4-(dimethylamino)phenyl](imino)methyl]amino]phenyl]cinnamamide] as the compound, how does the melting point read?
Its melting point is 225 to 227 °C.

Which melting point does the source give for `N=C(Nc1cccc(NC(=O)/C=C/c2cccc(Cl)c2)c1)c1ccccc1` [Example 53, (2E)-N-[3-(iminobenzylamino)phenyl]-3-(3-chlorophenyl)-2-propenamide] here?
The melting point was 260 to 262 °C.

With `N=C(Nc1cccc(NC(=O)/C=C/c2ccccc2Cl)c1)c1ccccc1` [Example 54, (2E)-N-[3-(iminobenzylamino)phenyl]-3-(2-chlorophenyl)-2-propenamide] as the compound, how does the melting point read?
Its melting point is 262 to 264 °C.

With `N=C(Nc1cc(Cl)cc(NC(=O)/C=C/c2ccccc2C(F)(F)F)c1)c1ccsc1` [Example 56, (2E)-N-[3-chloro-5-[[imino(3-thienyl)methyl]amino]phenyl]-3-[2-(trifluoromethyl)phenyl]-2-propenamide] as the compound, how does the melting point read?
Its melting point is 121 to 123 °C.

With `O=C(C=Cc1ccccc1Cl)Nc1cccc(-c2nc3ccccc3[nH]2)c1` [Example 58, N-[3-(1H-benzimidazol-2-yl)phenyl]-3-(2-chlorophenyl)-2-propenamide] as the compound, how does the melting point read?
The melting point was 152 to 154 °C.

For `Cc1ncccc1Oc1ccc(C(=N)Nc2cc(Cl)cc(NC(=O)C=Cc3ccccc3Cl)c2)cc1` [Example 59, N-[3-chloro-5-[[imino[4-[(2-methyl-3-pyridyl)oxy]phenyl]methyl]amino]phenyl]-3-(2-chlorophenyl)-2-propenamide], which melting point is on record?
Its melting point is 105 to 107 °C.

For `N=C(Nc1cccc(NC(=O)/C=C/c2ccccc2C(F)(F)F)c1F)c1ccccc1` [Example 61, (2E)-N-[3-(iminobenzylamino)-2-fluorophenyl]-3-[2-(trifluoromethyl)phenyl]-2-propenamide], which melting point is on record?
Its melting point is 185 to 187 °C.

For `N=C(Nc1ccc(F)c(NC(=O)/C=C/c2ccccc2C(F)(F)F)c1)c1cccs1` [Example 62, (2E)-N-[2-fluoro-5-[[imino(2-thienyl)methyl]amino]phenyl]-3-[2-(trifluoromethyl)phenyl]-2-propenamide], which melting point is on record?
The melting point was 208 to 209 °C.

Which melting point does the source give for `Cc1ncccc1Oc1ccc(C(=N)Nc2cc(Cl)cc(NC(=O)C=Cc3ccccc3C(F)(F)F)c2)cc1` [Example 64, N-[3-chloro-5-[[imino[4-[(2-methyl-3-pyridyl)oxy]phenyl]methyl]amino]phenyl]-3-[2-(trifluoromethyl)phenyl]-2-propenamide] here?
The melting point was 114 to 119 °C.

Which melting point does the source give for `N#Cc1ccccc1/C=C/C(=O)Nc1cc(Cl)cc(NC(=N)c2ccccc2)c1` [Example 67, (2E)-N-[3-chloro-5-(iminobenzylamino)phenyl]-3-(2-cyanophenyl)-2-propenamide] here?
Its melting point is 220 to 221 °C.

Which melting point does the source give for `N=C(Nc1cc(F)cc(NC(=O)/C=C/c2ccccc2C(F)(F)F)c1)c1ccccc1` [Example 137, (2E)-N-[3-fluoro-5-(iminobenzylamino)phenyl]-3-(2-trifluoromethylphenyl)-2-propenamide] here?
The melting point was 103 to 105 °C.

Which melting point does the source give for `N=C(Nc1cc(Cl)cc(NC(=O)/C=C/c2ccccc2F)c1)c1ccccc1` [Example 138, (2E)-N-[3-chloro-5-(iminobenzylamino)phenyl]-3-(2-fluorophenyl)-2-propenamide] here?
Its melting point is 186 to 187 °C.
